The text below walks through data of ChEMBL document CHEMBL3739354, “Nitrofuranyl Methyl Piperazines as New Anti-TB Agents: Identification, Validation, Medicinal Chemistry, and PK Studies” (ACS Med Chem Lett, 2015).

Converted amounts (≈) assume the structure as drawn.

In series [1] the test system is Mycobacterium tuberculosis. Briefly: microbe, parasite or virus in culture. Particulars: H37Rv ATCC 27294, 168 h.
Description: Antimycobacterial activity against Mycobacterium tuberculosis H37Rv ATCC 27294 after 7 days by REMA method
Series [2] in a line: Cytotoxicity against human HepG2 cells after 24 hrs by MTT assay. The series is classed as cell-based. (In general: Formazan colour is commonly taken as a measure of viable cells.)
A short description of series [3]: Selectivity index, ratio of CC50 for human HepG2 cells to MIC90 for Mycobacterium tuberculosis H37Rv ATCC 27294. The series is classed as toxicity, cell-based. Particulars: read-out: Selectivity Index.
Series [4] deals with Mycobacterium tuberculosis. Briefly: microbe, parasite or virus in culture. Particulars: 18b, 168 h.
Description: Antimycobacterial activity against non-replicating streptomycin starved Mycobacterium tuberculosis 18b after 7 days by REMA method
Series [5] can be described thus: Solubility of compound in water. Format: physicochemical.
A short description of series [6]: Solubility of compound in PBS buffer. Format: physicochemical.
The nature of series [7]: Solubility of compound in simulated gastric fluid. The series is classed as ADME, Stomach.
Series [8] is described as follows: Solubility of compound in simulated intestinal fluid. Format: ADME.
The nature of series [9]: Cmax in Swiss mouse at 10 mg/kg, po by LC-MS/MS analysis. Format: ADME, organism-based. The arrangement: dose 10 mg/kg, route oral. Particulars: in vivo.
Series [10] in a line: Tmax in Swiss mouse at 10 mg/kg, po by LC-MS/MS analysis. The series is classed as ADME, organism-based. Particulars: in vivo.
A short description of series [11]: AUC(0 to t) in Swiss mouse at 10 mg/kg, po by LC-MS/MS analysis. The series is classed as ADME, organism-based. Particulars: in vivo.
The nature of series [12]: Half life in Swiss mouse at 10 mg/kg, po by LC-MS/MS analysis. Format: ADME, organism-based. Particulars: in vivo.

The CC50 is the concentration giving 50% cytotoxicity. Lower therefore signals harm at low concentration. A word on the solubility: it is how much of the substance goes into solution per volume. A high value points to a readily soluble substance. The term Cmax denotes the highest concentration seen after dosing. The Tmax is the time from dosing to the highest level. Usually AUC(0-t) stands for exposure summed from dosing to a finite time, without extrapolation to infinity. A low value points to less exposure. The term half-life denotes how long it takes for the measured level to halve.

Take `O=[N+]([O-])c1ccc(CN2CCN(S(=O)(=O)c3ccc(C(F)(F)F)cc3)CC2)o1`: the MIC90 in series [1] stood at 0.5 µM (≈ 0.21 µg/mL).
The same measure, in the same setting: the same measure for `COc1cccc(S(=O)(=O)N2CCN(Cc3ccc([N+](=O)[O-])o3)CC2)c1`: 1.3 µM (≈ 0.496 µg/mL).
The compound `COc1cccc(N2CCN(Cc3ccc([N+](=O)[O-])o3)CC2)c1` had a CC50 at 24 h in [2] of over 63 µM. Also, the selectivity ratio in [3] was over 1580. Besides, the MIC90 amounted to 0.047 µM (≈ 0.0149 µg/mL) in series [1] and 2.11 µM (≈ 0.67 µg/mL) in series [4].
Compound `O=[N+]([O-])c1ccc(S(=O)(=O)N2CCN(Cc3ccc([N+](=O)[O-])o3)CC2)cc1` came in with a CC50 at 24 h in series [2] of over 50 µM. Moreover, the selectivity ratio in series [3] was over 333. Also, the MIC90 in series [1] is 0.15 µM (≈ 0.0595 µg/mL); in series [4], 20.1 µM (≈ 7.97 µg/mL).
In the case of `O=[N+]([O-])c1ccc(CN2CCN(c3ccccc3)CC2)s1`, the MIC90 in series [1] was over 13.1 µM.
`CC(C)(C)c1ccc(N2CCN(Cc3ccc([N+](=O)[O-])o3)CC2)cc1` displayed a CC50 at 24 h in [2] of over 63 µM. Further, in series [3], the selectivity ratio is over 700. In addition, the solubility in series [5] was 116 µM (≈ 40 µg/mL); in series [6], 58.2 µM (≈ 20 µg/mL); in [7], 1170 µM (≈ 400 µg/mL); in [8] it was 2.9 µM (≈ 0.996 µg/mL). In series [9], this compound showed a Cmax of 2.35 µM. Moreover, the Tmax in series [10] was found to be 15 min. Besides, the AUC(0-t) in series [11] is 2.99 µM·h. The compound further showed a half-life in [12] of 242 min. In addition, the MIC90 in series [1] came out at 0.0072 µM (≈ 0.00247 µg/mL); in [4] it was 12.6 µM (≈ 4.33 µg/mL).
`O=[N+]([O-])c1ccc(CN2CCN(c3ccc(F)cc3)CC2)o1`: in series [1], the MIC90 came out at 3.27 µM (≈ 0.998 µg/mL).
On to `O=[N+]([O-])c1ccc(CN2CCN(c3ccc(N4CCOCC4)cc3)CC2)o1`, for which the CC50 at 24 h in series [2] was over 53 µM. Moreover, the selectivity ratio in series [3] was over 2650. The compound also had a solubility in series [5] of 2.68 µM (≈ 0.998 µg/mL). Further, in series [9], the Cmax stood at 5.34 µM. Besides, the Tmax in [10] was determined as 15 min. Besides, in series [11], the AUC(0-t) was 4.51 µM·h. This compound showed a half-life in series [12] of 52.8 min. Moreover, the MIC90 in [1] turned out to be 0.02 µM (≈ 0.00745 µg/mL); in series [4], 0.56 µM (≈ 0.209 µg/mL).
`Cc1ccc(N2CCN(Cc3ccc([N+](=O)[O-])o3)CC2)cc1`: the MIC90 in series [1] worked out at 13.2 µM (≈ 3.98 µg/mL).
In [1], `O=[N+]([O-])c1ccc(CN2CCN(c3ccc(Cl)cc3)CC2)s1` came in with an MIC90 of over 11.8 µM.
Compound `N#Cc1cccc(N2CCN(Cc3ccc([N+](=O)[O-])o3)CC2)c1` came in with a CC50 at 24 h in [2] of over 64 µM. Moreover, the selectivity ratio in [3] is over 3200. The solubility is 256 µM (≈ 80 µg/mL) in [5], 256 µM (≈ 80 µg/mL) in [6], 2560 µM (≈ 801 µg/mL) in series [7] and 32 µM (≈ 9.99 µg/mL) in series [8]. Further, the MIC90 in series [1] is 0.019 µM (≈ 0.00593 µg/mL); in series [4], 1.34 µM (≈ 0.419 µg/mL).
`Cc1ccc(S(=O)(=O)N2CCN(Cc3ccc([N+](=O)[O-])o3)CC2)cc1`: the CC50 at 24 h in series [2] is over 54 µM. Besides, the selectivity ratio in [3] was over 338. For the same compound, the MIC90 was 0.16 µM (≈ 0.0585 µg/mL) in series [1] and over 21.9 µM in series [4].
The compound `O=[N+]([O-])c1ccc(CN2CCN(S(=O)(=O)c3ccc(F)cc3)CC2)o1` came in with a CC50 at 24 h in series [2] of over 54 µM. Further, the selectivity ratio in [3] was over 675. For the same compound, the solubility is 108 µM (≈ 40 µg/mL) in series [5], 54.1 µM (≈ 20 µg/mL) in series [6], 2170 µM (≈ 801 µg/mL) in series [7] and 13.5 µM (≈ 4.99 µg/mL) in series [8]. For the same compound, in [9], the highest level (Cmax) was 3.26 µM. In series [10], the Tmax is 15 min. Moreover, in [11], the AUC(0-t) was found to be 4.22 µM·h. In [12], this compound had a half-life of 87.6 min. The MIC90 is 0.08 µM (≈ 0.0295 µg/mL) in [1] and over 21.6 µM in series [4].
Consider `COc1ccc(S(=O)(=O)N2CCN(Cc3ccc([N+](=O)[O-])o3)CC2)cc1`, for which the MIC90 in series [1] turned out to be 0.31 µM (≈ 0.118 µg/mL).
Same read-out and setting: for `CC(=O)c1ccc(N2CCN(Cc3ccc([N+](=O)[O-])s3)CC2)cc1` the value was over 11.5 µM; for `O=[N+]([O-])c1ccc(CN2CCOCC2)o1`, 31.4 µM (≈ 6.66 µg/mL).
In series [2], `CC(C)(C)OC(=O)N1CCN(Cc2ccc([N+](=O)[O-])o2)CC1` showed a CC50 at 24 h of over 64 µM. In addition, the selectivity ratio in series [3] is over 1600. In addition, the solubility in series [5] was 1290 µM (≈ 400 µg/mL); in series [6], 2570 µM (≈ 800 µg/mL); in [7] it was 2570 µM (≈ 800 µg/mL); in [8] it was 2570 µM (≈ 800 µg/mL). Further, in series [9], the Cmax worked out at 3.81 µM. Also, in series [10], the Tmax was 15 min. Moreover, the AUC(0-t) in series [11] was 2.71 µM·h. Also, the half-life in [12] was 101 min. Further, the figures for the MIC90 in series [1] and in [4] were 0.048 µM (≈ 0.0149 µg/mL) and 1.6 µM (≈ 0.498 µg/mL), respectively.
Consider `O=[N+]([O-])c1ccc(CN2CCN(S(=O)(=O)c3ccccc3)CC2)o1`, for which the CC50 at 24 h in [2] is over 56 µM. In series [3], the selectivity ratio was over 329. Besides, the MIC90 was 0.17 µM (≈ 0.0597 µg/mL) in series [1] and over 22.7 µM in series [4].
Turning to `O=[N+]([O-])c1ccc(CN2CCN(c3ccccc3)CC2)o1`, the MIC90 in series [1] is 0.2 µM (≈ 0.0575 µg/mL).
`COc1c(N2CCNC(C)C2)c(F)cc2c(=O)c(C(=O)O)cn(C3CC3)c12` (stereo unspecified) [GATIFLOXACIN] yielded an MIC90 in [4] of 2.66 µM (≈ 0.999 µg/mL).
For `CC(=O)c1ccc(N2CCN(Cc3ccc([N+](=O)[O-])o3)CC2)cc1`, in series [1], the MIC90 was determined as 0.3 µM (≈ 0.0988 µg/mL).
For the compound `CS(=O)(=O)N1CCN(Cc2ccc([N+](=O)[O-])o2)CC1`, the MIC90 in series [1] was determined as 23.1 µM (≈ 6.67 µg/mL).
`O=[N+]([O-])c1ccc(CN2CCN(c3ccc(Cl)cc3)CC2)o1` displayed a CC50 at 24 h in series [2] of over 58 µM. In addition, in series [3], the selectivity ratio is over 11600. Moreover, the results for the MIC90 in [1] and in series [4] were 0.37 µM (≈ 0.119 µg/mL) and 1.4 µM (≈ 0.45 µg/mL), respectively.
With `Cc1cccc(N2CCN(Cc3ccc([N+](=O)[O-])o3)CC2)c1C`, the MIC90 in series [1] came out at 12.7 µM (≈ 4 µg/mL).
Take `COc1ccc(N2CCN(Cc3ccc([N+](=O)[O-])o3)CC2)cc1`: in [1], the MIC90 was determined as 0.12 µM (≈ 0.0381 µg/mL).
As to `O=[N+]([O-])c1ccc(CN2CCN(c3cccc(C(F)(F)F)c3)CC2)o1`, the MIC90 in series [1] was determined as 0.33 µM (≈ 0.117 µg/mL).
With `CO[C@H]1/C=C/O[C@@]2(C)Oc3c(C)c(O)c4c(O)c(c(/C=N/N5CCN(C)CC5)c(O)c4c3C2=O)NC(=O)/C(C)=C\C=C\[C@H](C)[C@H](O)[C@@H](C)[C@@H](O)[C@@H](C)[C@H](OC(C)=O)[C@@H]1C` [RIFAMPIN], the results for the MIC90 in series [1] and in series [4] were 0.07 µM (≈ 0.0576 µg/mL) and 2.4 µM (≈ 1.98 µg/mL), respectively.
In series [1], `O=[N+]([O-])c1ccc(CN2CCN(c3cccc(Cl)c3)CC2)o1` registered an MIC90 of 0.37 µM (≈ 0.119 µg/mL).
Still for that read-out and setting: for `c1ccc(N2CCN(Cc3ccco3)CC2)cc1` the value was over 16.5 µM; for `COc1ccccc1N1CCN(Cc2ccc([N+](=O)[O-])o2)CC1`, 25.2 µM (≈ 8 µg/mL); for `O=[N+]([O-])c1ccc(CN2CCN(c3ccccc3F)CC2)o1`, 6.55 µM (≈ 2 µg/mL).
On the same count and under the same terms, the same measure for `O=[N+]([O-])c1ccc(CN2CCC(c3ccccc3)CC2)o1`: 0.59 µM (≈ 0.169 µg/mL).
